Results published in US20060025401A1, “Use of inhibitors of the sodium-dependent chloride/bicarbonate exchanger for the treatment of thrombotic and inflammatory disorders” (Sanofi-Aventis Deutschland GmbH, priority 2002, published 2006).

Columns and labels:
[1] = test system: human umbilical vein endothelial cells (HUVEC); test: Measurement of vWF release after reperfusion (ELISA of cell supernatant); assay type: cell-based
Description: All the examples were carried out with human umbilical vein endothelial cells (HUVEC). These comprise primary cell cultures isolated from the umbilical vein.
For the following examples, the cells were cultivated either on gelatinized glass plates (measurement of the intracellular proton concentration) or on cell culture plates (12-well culture plates, Falcon, N.J., USA; measurement of vWF release) after the first passage.
The measurements were carried out in a Heraeus Heracell incubator. This made it possible to […] the umbilical vein endothelial cells under controlled physiological conditions (temperature 37° C., relative humidity 100%, pCO2 constant at 5%) and to ensure rapid change of different cell culture media. […]
The samples taken from the supernatant were used to determine the vWF concentration. […] The vWF content of standard human plasma (Behring, Marburg) is calculated using an international standard (2nd International Standard 87/718; National Institute for Biological Standards and Control, London).
Table 4: vWF secretion was measured during a 10-minute reperfusion time with stimulation. […]

[2] = test system: human umbilical vein endothelial cells (HUVEC); test: Measurement of the intracellular pH (BCECF fluorescence) during reperfusion simulation after acidosis; assay type: cell-based; settings: reperfusion buffer pH 7.4 with 10 μM histamine after 60 minutes of acidosis (pHex 6.4); inhibitors each 10 μM; found from first 30 seconds after reperfusion; Mean ± SEM; control buffer 18 ± 1.5
Description: All the examples were carried out with human umbilical vein endothelial cells (HUVEC). These comprise primary cell cultures isolated from the umbilical vein. For the following examples, the cells were cultivated either on gelatinized glass plates (measurement of the intracellular proton concentration) or on cell culture plates (12-well culture plates, Falcon, N.J., USA; measurement of vWF release) after the first passage. To measure the intracellular proton concentration (pHi), the HUVECs were loaded with the pH-sensitive fluorescent dye BCECF-AM (2′,7′-bis(carboxyethyl)-5(6)-carboxyfluorescein). A Deltascan spectrofluorometer (PTI, Hamburg) was employed for the subsequent fluorescence measurement. This measuring system consists essentially of a UV light source, a monochromator, a photon detector and the Felix and Oscar software packages (PTI, Hamburg) for controlling the system via a computer. After alternate excitation with the wavelengths 439.5 nm (pH-independent) and 490 nm (pH-sensitive), the ratio of the measured emissions of the BCECF (ratio) was reported and the pH was found after a calibration. The measuring cell is designed so that the parameters of temperature and carbon dioxide partial pressure in the system are controlled during continuous perfusion. […]

| SMILES | vWF secretion during reperfusion of preacidotic cells, relative to control cells (vWFco = 100%) ([1]; 10 μM compound, 10-minute reperfusion time with stimulation (10 μM histamine), preacidotic cells without inhibitor 193 ± 8.0%) [%] | reduction of the increased vWF secretion during reperfusion ([1]; blockade of the NCBE transporter, 10 μM, reperfusion of preacidotic cells) [%] | Time to Δ PHi, max/2 (time to the half-maximum pHi change) [2] [s] |
| --- | --- | --- | --- |
| COCCOc1nc(-c2ccccc2)n(Cc2ccc(-c3ccccc3S(=O)(=O)NC#N)cc2S(C)(=O)=O)c1C=O [Compound 1, 4′-[5-formyl-4-(2-methoxyethoxy)-2-phenyl-1-imidazolylmethyl]-3′-methylsulfonylbiphenyl-2-sulfonylcyanamide] | 157 ± 18 | ~50 |  |
| CC(C)c1ccc(C(=O)NC(=N)N)cc1S(C)(=O)=O [NHE, cariporide] |  |  | 190 ± 2.9 |
